Results: patent US20240165127A1, “CONTRAST AGENT FOR DIAGNOSIS OF VASCULAR DISEASE CONTAINING GADOLINIUM-BASED COMPOUND AS ACTIVE INGREDIENT AND SYNTHESIS METHOD THEREFOR” (DAEGU CATHOLIC UNIVERSITY INDUSTRY ACADEMIC COOPERATION …, priority 2022, published 2024)
“And” between values parts separate entries of the source, which are not always exact repeats. Equal values may be shown once.

Assays:
[1] = In vitro molar longitudinal relaxivity (r1), 3.0T MRI, inversion recovery method; format: physicochemical; conditions: 25° C., concentrations 0.01, 0.02, 0.04, 0.06, 0.08, and 0.1 mM
Experimental: (§1) To obtain quantitative information on the efficacy of the Gd-DOTA-click-SF probe and Dotarem as MRI contrast agents, the molar longitudinal relaxivities (r1) thereof were analyzed. At 25° C., 3.0T MRI was performed using the inversion recovery method, and 9.4T MRI was performed using the RARE (Rapid Acquisition with Refocused Echoes) method.

[2] = Transmetallation kinetics: stability of Gd(III) complex in presence of Zn(II) ions, ICP/MS; format: physicochemical; conditions: 1 mM complex, 250 mM ZnCl2 in phosphate buffer, 0 to 48 hours
Experimental: In vivo, the transmetallation of the Gd complex occurs because Gd^3+ ions compete with other endogenous cations and endogenous anions that destabilize the gadolinium complex and shift the dissociation equilibrium toward its free components. For this reason, the in vitro stability of the Gd(III) complex should be investigated in the presence of Zn(II) ions. 8 μL of a solution of 250 mM ZnCl2 in phosphate buffer was added to 1.5 mL of 1 mM Gd-DOTA-click-SF complex and the mixture was stirred. Thereafter, the solution was collected at 0, 2, 4, 6, 8, 24, and 48 hours and filtered. […] To compare the stability of Gd-DOTA-click-SF with that the clinical contrast agent Dotarem, the same procedure was repeated three times.

[3] = tested on: endothelial C166 cells; experiment: In vitro cell viability, CCK-8 assay; format: cell-based; conditions: 0.01 to 0.1 mM, 24 hours
Experimental: The cytotoxicity of the Gd-DOTA click-SF probe was assessed against macrophage RAW264.7 cells and endothelial C166 cells using the CCK-8 assay according to the instructions provided by the manufacturer. RAW264.7 cells and endothelial C166 cells were cultured in DMEM containing 10% FBS and 1% penicillin-streptomycin (10000 U/ml). 2.5×10^4 RAW 264.7 cells and 3×10^3 C166 cells per well in 100 μL of DMEM well were seeded in 96-well plates. The cells were cultured at 37° C. for 24 hours in a humidified atmosphere containing 5% CO2, and then for comparison, each of the Gd-DOTA-click-SF probe and Dotarem was added thereto at concentrations of 0.01, 0.025, 0.05, 0.075, and 0.1 mM, followed by incubation at 37° C. for 24 hours. Thereafter, the cells were treated with 10 μl of CCK-8 solution and further cultured for 2 hours at 37° C., and the absorbance of each well was measured at 450 nm using a microplate reader.

[4] = tested on: elastase activity; experiment: Ex vivo T1-weighted MRI, CNR and ICP/MS gadolinium content of aortas from rats with induced abdominal aortic aneurysm (AAA) and from healthy rats; design: species or system Sprague-Dawley (SD) rats; conditions: for T1-signal intensity in T1-weighted MRI: immersed at 1.28 mM for 1 hour, washed 3 times with PBS
Source text: As experimental animals, 7-week-old Sprague-Dawley (SD) rats were used. The rats were maintained on a 12-hour light-dark cycle with free access to water and feed for one week of acclimatization. Then, the rats were randomly divided into a normal control group and an experimental group (aortic aneurysm group), and each group was further divided into a Dotarem-administered group and a Gd-DOTA-click-SF-administered group. Accordingly, the rats were divided into a total of 4 groups, each consisting of 4 animals.
To induce an abdominal aortic aneurysm, rats were anesthetized by inhalation with 2 to 2.5% isoflurane, and then their abdomen was incised to expose the aortic branches. Next, 300 μL of 12U porcine pancreatic elastase was perfused for 10 minutes.
After 5 weeks, the aorta with induced abdominal aortic aneurysm was harvested, immersed in Dotarem or the Gd-DOTA-click-SF of the present disclosure at 1.28 mM for 1 hour under shaking. Then, it was taken out and washed 3 times with PBS. Finally, the samples were placed in PCR tubes filled with PBS and were examined by T1-weighted MRI. The same procedure was also applied to the aorta from the healthy normal control group, which was immersed in Dotarem or the Gd-DOTA-click-SF of the present disclosure at 1.28 mM for 1 hour under shaking. Then, it was taken out and washed 3 times with PBS. Finally, the samples were placed in PCR tubes filled with PBS and were examined by T1-weighted MRI.
The CNRs of the MRI results for the four groups, identified in Example 7, were examined, and the concentrations of gadolinium were measured using ICP/MS (ICP/MS 7700, Agilent, USA).

[5] = In vitro molar longitudinal relaxivity (r1), 9.4T MRI, RARE method; format: physicochemical; conditions: 25° C.
Experimental: as §1

- 3.0T r1 (molar longitudinal relaxivity) [1]: 2.105 mM^−1s^−1 and 2.211^a mM^−1s^−1
- 9.4T r1 (molar longitudinal relaxivity) ([5]; concentrations 0.01, 0.02, 0.04, 0.06, 0.08, and 0.1 mM): 4.647 mM^−1s^−1 and 4.647^a mM^−1s^−1
- 9.4T r1 (molar longitudinal relaxivity) ([5]; concentrations 0.04, 0.08, 0.16, 0.32, and 0.64 mM): 5.064 mM^−1s^−1 and 5.064^b mM^−1s^−1
Compound: CNC[C@H](O)[C@@H](O)[C@H](O)[C@H](O)CO.O=C([O-])CN1CCN(CC(=O)[O-])CCN(CC(=O)O)CCN(CC(=O)[O-])CC1.[Gd+3] [Dotarem]
- stability of Gd(III) complex (kinetic inertness, transmetallation) [2]: very stable in the presence of Zn(II) ions without transmetallation
- cell viability / cytotoxicity [3]: non-cytotoxic
- T1-signal intensity in T1-weighted MRI ([4]; AAA aorta ex vivo): did not show high signal intensity
- binding to the arterial wall ([4]; ex vivo aortas, after washing with PBS): very low
- T1-signal intensity in T1-weighted MRI ([4]; healthy normal aorta ex vivo): did not show high signal intensity
